{"source": "patent US7776858B2", "about": "“Methods of treatment of chronic pain using eszopiclone” (Sepracor Inc., priority 2004, dated 2010)", "system": "subjects with insomnia related to rheumatoid arthritis", "assay": "Arthritis Self-Efficacy Scale, clinical study of eszopiclone 3 mg vs placebo", "assay_type": "in vivo, human", "description": "The study was aimed at observing the effect of eszopiclone 3 mg compared to placebo on daytime function in subjects with insomnia related to rheumatoid arthritis. The study was a multicenter, randomized, double-blind, placebo controlled, parallel group study.\nA total of 153 subjects were randomized. Among them, 77 received 3 mg of eszopiclone (ESZ) nightly (at bedtime) for four weeks and 76 received matching placebo (PBO). […] In addition, subjects had insomnia symptoms including wake time after sleep onset (WASO) of ≧45 minutes, and total sleep time ≦6.5 hours. Diagnosis of rheumatoid arthritis predated the onset of insomnia symptoms.\nDuring the double blind treatment, subjects were dosed with 3 mg eszopiclone (ESZ) or matching placebo (PBO) nightly (at bedtime) for four weeks. Data was analyzed with one-sided significance tests.", "key": {"[1]": {"settings": "3 mg nightly, visit 5 (Week 4), ITT"}, "[2]": {"settings": "3 mg nightly, visit 5 (Week 4), ITT, ANCOVA"}, "[3]": {"settings": "3 mg nightly, visit 6 (EOS), ITT"}}, "data": [{"smiles": "CN1CCN(C(=O)O[C@H]2c3nccnc3C(=O)N2c2ccc(Cl)cn2)CC1", "note": "[Eszopiclone, (+) 6-(5-chloropyrid-2-yl)-5-(4-methylpiperazin-1-yl)carbonyloxy-7-oxo-6,7-dihydro-5H-pyrrolo[3-4-b]pyrazine]", "values": [{"measurement": "Arthritis Self-Efficacy Scale Pain subscale analyzed alone, difference", "setting": "3 mg nightly vs placebo", "result": "statistically significant difference"}, {"measurement": "Arthritis Self-Efficacy Scale Pain subscale in combination with Other Symptoms, difference", "setting": "3 mg nightly vs placebo", "result": "statistically significant difference"}, {"measurement": "effect on change from baseline to end of study (Week 4) in the Overall score for the Arthritis Self-Efficacy Scale", "setting": "3 mg nightly vs placebo", "result": "significant effect"}, {"measurement": "Arthritis Self-Efficacy Scale Function, Change from Baseline, 25th Percentile", "setting": "[1]", "result": "−1.0"}, {"measurement": "Arthritis Self-Efficacy Scale Function, Change from Baseline, 75th Percentile", "setting": "[1]", "result": 13.5}, {"measurement": "Arthritis Self-Efficacy Scale Function, Change from Baseline, Maximum", "setting": "[1]", "result": 74.0}, {"measurement": "Arthritis Self-Efficacy Scale Function, Change from Baseline, Mean (SD)", "setting": "[1]", "result": "4.8 (15.7)"}, {"measurement": "Arthritis Self-Efficacy Scale Function, Change from Baseline, Median", "setting": "[1]", "result": 4.0}, {"measurement": "Arthritis Self-Efficacy Scale Function, Change from Baseline, Minimum", "setting": "[1]", "result": "−34.0"}, {"measurement": "Arthritis Self-Efficacy Scale Function, Observed Value, 25th Percentile", "setting": "[1]", "result": 45.5}, {"measurement": "Arthritis Self-Efficacy Scale Function, Observed Value, 75th Percentile", "setting": "[1]", "result": 83.5}, {"measurement": "Arthritis Self-Efficacy Scale Function, Observed Value, Maximum", "setting": "[1]", "result": 90.0}, {"measurement": "Arthritis Self-Efficacy Scale Function, Observed Value, Mean (SD)", "setting": "[1]", "result": "62.0 (22.1)"}, {"measurement": "Arthritis Self-Efficacy Scale Function, Observed Value, Median", "setting": "[1]", "result": 61.0}, {"measurement": "Arthritis Self-Efficacy Scale Function, Observed Value, Minimum", "setting": "[1]", "result": 13.0}, {"measurement": "Arthritis Self-Efficacy Scale Other Symptoms, Change from Baseline, 25th Percentile", "setting": "[1]", "result": "−2.0"}, {"measurement": "Arthritis Self-Efficacy Scale Other Symptoms, Change from Baseline, 75th Percentile", "setting": "[1]", "result": 10.0}, {"measurement": "Arthritis Self-Efficacy Scale Other Symptoms, Change from Baseline, Maximum", "setting": "[1]", "result": 41.0}, {"measurement": "Arthritis Self-Efficacy Scale Other Symptoms, Change from Baseline, Mean (SD)", "setting": "[1]", "result": "3.5 (10.5)"}, {"measurement": "Arthritis Self-Efficacy Scale Other Symptoms, Change from Baseline, Median", "setting": "[1]", "result": 3.0}, {"measurement": "Arthritis Self-Efficacy Scale Other Symptoms, Change from Baseline, Minimum", "setting": "[1]", "result": "−26.0"}, {"measurement": "Arthritis Self-Efficacy Scale Other Symptoms, Observed Value, 25th Percentile", "setting": "[1]", "result": 31.5}, {"measurement": "Arthritis Self-Efficacy Scale Other Symptoms, Observed Value, 75th Percentile", "setting": "[1]", "result": 50.0}, {"measurement": "Arthritis Self-Efficacy Scale Other Symptoms, Observed Value, Maximum", "setting": "[1]", "result": 59.0}, {"measurement": "Arthritis Self-Efficacy Scale Other Symptoms, Observed Value, Mean (SD)", "setting": "[1]", "result": "39.3 (12.7)"}, {"measurement": "Arthritis Self-Efficacy Scale Other Symptoms, Observed Value, Median", "setting": "[1]", "result": 40.0}, {"measurement": "Arthritis Self-Efficacy Scale Other Symptoms, Observed Value, Minimum", "setting": "[1]", "result": 6.0}, {"measurement": "Arthritis Self-Efficacy Scale Overall, Change from Baseline, 25th Percentile", "setting": "[1]", "result": "−1.6"}, {"measurement": "Arthritis Self-Efficacy Scale Overall, Change from Baseline, 75th Percentile", "setting": "[1]", "result": 26.0}, {"measurement": "Arthritis Self-Efficacy Scale Overall, Change from Baseline, Maximum", "setting": "[1]", "result": 124.0}, {"measurement": "Arthritis Self-Efficacy Scale Overall, Change from Baseline, Mean (SD)", "setting": "[1]", "result": "11.5 (29.3)"}, {"measurement": "Arthritis Self-Efficacy Scale Overall, Change from Baseline, Median", "setting": "[1]", "result": 12.0}, {"measurement": "Arthritis Self-Efficacy Scale Overall, Change from Baseline, Minimum", "setting": "[1]", "result": "−74.0"}, {"measurement": "Arthritis Self-Efficacy Scale Overall, Observed Value, 25th Percentile", "setting": "[1]", "result": 103.0}, {"measurement": "Arthritis Self-Efficacy Scale Overall, Observed Value, 75th Percentile", "setting": "[1]", "result": 162.5}, {"measurement": "Arthritis Self-Efficacy Scale Overall, Observed Value, Maximum", "setting": "[1]", "result": 189.0}, {"measurement": "Arthritis Self-Efficacy Scale Overall, Observed Value, Mean (SD)", "setting": "[1]", "result": "130.9 (38.2)"}, {"measurement": "Arthritis Self-Efficacy Scale Overall, Observed Value, Median", "setting": "[1]", "result": 132.6}, {"measurement": "Arthritis Self-Efficacy Scale Overall, Observed Value, Minimum", "setting": "[1]", "result": 27.0}, {"measurement": "Arthritis Self-Efficacy Scale Pain and Other Symptoms, Change from Baseline, 25th Percentile", "setting": "[1]", "result": 1.0}, {"measurement": "Arthritis Self-Efficacy Scale Pain and Other Symptoms, Change from Baseline, 75th Percentile", "setting": "[1]", "result": 13.0}, {"measurement": "Arthritis Self-Efficacy Scale Pain and Other Symptoms, Change from Baseline, Maximum", "setting": "[1]", "result": 50.0}, {"measurement": "Arthritis Self-Efficacy Scale Pain and Other Symptoms, Change from Baseline, Mean (SD)", "setting": "[1]", "result": "6.9 (16.4)"}, {"measurement": "Arthritis Self-Efficacy Scale Pain and Other Symptoms, Change from Baseline, Median", "setting": "[1]", "result": 6.0}, {"measurement": "Arthritis Self-Efficacy Scale Pain and Other Symptoms, Change from Baseline, Minimum", "setting": "[1]", "result": "−46.0"}, {"measurement": "Arthritis Self-Efficacy Scale Pain and Other Symptoms, Observed Value, 25th Percentile", "setting": "[1]", "result": 53.5}, {"measurement": "Arthritis Self-Efficacy Scale Pain and Other Symptoms, Observed Value, 75th Percentile", "setting": "[1]", "result": 86.0}, {"measurement": "Arthritis Self-Efficacy Scale Pain and Other Symptoms, Observed Value, Maximum", "setting": "[1]", "result": 101.0}, {"measurement": "Arthritis Self-Efficacy Scale Pain and Other Symptoms, Observed Value, Mean (SD)", "setting": "[1]", "result": "68.5 (21.1)"}, {"measurement": "Arthritis Self-Efficacy Scale Pain and Other Symptoms, Observed Value, Median", "setting": "[1]", "result": 69.7}, {"measurement": "Arthritis Self-Efficacy Scale Pain and Other Symptoms, Observed Value, Minimum", "setting": "[1]", "result": 14.0}, {"measurement": "Arthritis Self-Efficacy Scale Pain, Change from Baseline, 25th Percentile", "setting": "[1]", "result": "−1.0"}, {"measurement": "Arthritis Self-Efficacy Scale Pain, Change from Baseline, 75th Percentile", "setting": "[1]", "result": 10.5}, {"measurement": "Arthritis Self-Efficacy Scale Pain, Change from Baseline, Maximum", "setting": "[1]", "result": 30.0}, {"measurement": "Arthritis Self-Efficacy Scale Pain, Change from Baseline, Mean (SD)", "setting": "[1]", "result": "3.3 (10.5)"}, {"measurement": "Arthritis Self-Efficacy Scale Pain, Change from Baseline, Median", "setting": "[1]", "result": 3.0}, {"measurement": "Arthritis Self-Efficacy Scale Pain, Change from Baseline, Minimum", "setting": "[1]", "result": "−37.0"}, {"measurement": "Arthritis Self-Efficacy Scale Pain, Observed Value, 25th Percentile", "setting": "[1]", "result": 22.0}, {"measurement": "Arthritis Self-Efficacy Scale Pain, Observed Value, 75th Percentile", "setting": "[1]", "result": 38.0}, {"measurement": "Arthritis Self-Efficacy Scale Pain, Observed Value, Maximum", "setting": "[1]", "result": 50.0}, {"measurement": "Arthritis Self-Efficacy Scale Pain, Observed Value, Median", "setting": "[1]", "result": 28.0}, {"measurement": "Arthritis Self-Efficacy Scale Pain, Observed Value, Minimum", "setting": "[1]", "result": 8.0}, {"measurement": "Arthritis Self-Efficacy Scale Function, Change from Baseline, Least Squares Means (SE) [2]", "setting": "[2]", "result": "4.2 (1.7)"}, {"measurement": "Arthritis Self-Efficacy Scale Other Symptoms, Change from Baseline, Least Squares Means (SE) [2]", "setting": "[2]", "result": "3.4 (1.2)"}, {"measurement": "Arthritis Self-Efficacy Scale Overall, Change from Baseline, Least Squares Means (SE) [2]", "setting": "[2]", "result": "10.4 (3.2)"}, {"measurement": "Arthritis Self-Efficacy Scale Pain and Other Symptoms, Change from Baseline, Least Squares Means (SE) [2]", "setting": "[2]", "result": "6.6 (1.9)"}, {"measurement": "Arthritis Self-Efficacy Scale Pain, Change from Baseline, Least Squares Means (SE) [2]", "setting": "[2]", "result": "3.1 (1.0)"}, {"measurement": "Arthritis Self-Efficacy Scale Function, Change from Baseline, 25th Percentile", "setting": "[3]", "result": "−1.0"}, {"measurement": "Arthritis Self-Efficacy Scale Function, Change from Baseline, 75th Percentile", "setting": "[3]", "result": 14.0}, {"measurement": "Arthritis Self-Efficacy Scale Function, Change from Baseline, Maximum", "setting": "[3]", "result": 58.0}, {"measurement": "Arthritis Self-Efficacy Scale Function, Change from Baseline, Mean (SD)", "setting": "[3]", "result": "6.8 (15.6)"}, {"measurement": "Arthritis Self-Efficacy Scale Function, Change from Baseline, Median", "setting": "[3]", "result": 5.0}, {"measurement": "Arthritis Self-Efficacy Scale Function, Change from Baseline, Minimum", "setting": "[3]", "result": "−45.0"}, {"measurement": "Arthritis Self-Efficacy Scale Function, Observed Value, 25th Percentile", "setting": "[3]", "result": 45.0}, {"measurement": "Arthritis Self-Efficacy Scale Function, Observed Value, 75th Percentile", "setting": "[3]", "result": 85.0}]}]}
